Measured values: US5436246A, “Serotonin receptor agents” (priority 1993, dated 1995)
Structures can show the parent of a compound that is named as a salt. Where two headings read alike, the source gives them in different places.

Tests used:
5HT1A receptor = target: T1, 5HT1A receptor (Rattus norvegicus, UniProt P19327); experiment: 5HT1A receptor binding affinity (procedure of Gozlan et al.)
T1 sequence (P19327 1-422): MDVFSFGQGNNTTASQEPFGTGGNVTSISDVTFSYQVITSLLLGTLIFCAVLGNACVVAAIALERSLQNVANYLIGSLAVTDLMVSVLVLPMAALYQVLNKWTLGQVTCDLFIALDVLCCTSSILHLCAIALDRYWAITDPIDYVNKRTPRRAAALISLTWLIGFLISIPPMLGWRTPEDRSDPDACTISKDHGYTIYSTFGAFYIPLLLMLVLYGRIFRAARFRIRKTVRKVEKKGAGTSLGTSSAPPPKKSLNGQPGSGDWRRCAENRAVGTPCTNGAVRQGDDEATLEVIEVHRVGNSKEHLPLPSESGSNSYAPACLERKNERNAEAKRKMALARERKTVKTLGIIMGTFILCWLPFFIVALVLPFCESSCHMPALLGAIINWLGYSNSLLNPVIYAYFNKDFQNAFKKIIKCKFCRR
Description: In the following examples, the compounds binding affinity for both the 5HT1A receptor and 5HT1D receptors is reported. The compounds affinity for the 5HT1D site was determined by the binding procedure of Peroutka et al as reported in European Journal of Pharmacology, Vol. 163 at pages 133-166 (1989). The compounds affinity for the 5HT1A receptor was determined by the procedure of Gozlan et al., as reported in Nature, Volume 305, at pages 140-142 (1983). Where multiple determinations of the binding affinity have been performed, the average is given followed by the number of determinations in parentheses. Also, the PA2 value for the saphenous vein preparation as described in this application is given, followed by the intrinsic (agonist) activity in parentheses, expressed as a percentage. [drawing 10] […]

5HT1D receptor = target: T2, 5HT1D receptor (Bos taurus, UniProt F1MGM3); experiment: 5HT1D receptor binding affinity (procedure of Peroutka et al.)
T2 construct: from tissue
T2 sequence (F1MGM3 1-403): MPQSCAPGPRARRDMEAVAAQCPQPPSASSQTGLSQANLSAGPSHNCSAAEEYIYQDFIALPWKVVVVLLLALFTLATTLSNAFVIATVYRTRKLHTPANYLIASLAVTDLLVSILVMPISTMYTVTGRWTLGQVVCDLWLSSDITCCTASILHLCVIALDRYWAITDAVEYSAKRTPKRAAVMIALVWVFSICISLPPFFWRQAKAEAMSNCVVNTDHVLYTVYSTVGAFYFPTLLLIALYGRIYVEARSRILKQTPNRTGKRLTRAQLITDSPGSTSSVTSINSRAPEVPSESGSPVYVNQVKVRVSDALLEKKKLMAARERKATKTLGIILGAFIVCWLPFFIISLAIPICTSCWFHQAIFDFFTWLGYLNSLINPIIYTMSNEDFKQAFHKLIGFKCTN
Description: The compounds affinity for the 5HT1D site was determined by the binding procedure of Peroutka et al as reported in European Journal of Pharmacology, Vol. 163 at pages 133-166 (1989). […] Where multiple determinations of the binding affinity have been performed, the average is given followed by the number of determinations in parentheses.

5-HT1D receptors = 5-HT1D receptors (Canis lupus familiaris, UniProt P79250); design: species or system dog (canine); conditions: for Emax: dog, read-out: intrinsic (agonist) activity, saphenous vein preparation
5-HT1D receptors, sequence (P79250 whole entry): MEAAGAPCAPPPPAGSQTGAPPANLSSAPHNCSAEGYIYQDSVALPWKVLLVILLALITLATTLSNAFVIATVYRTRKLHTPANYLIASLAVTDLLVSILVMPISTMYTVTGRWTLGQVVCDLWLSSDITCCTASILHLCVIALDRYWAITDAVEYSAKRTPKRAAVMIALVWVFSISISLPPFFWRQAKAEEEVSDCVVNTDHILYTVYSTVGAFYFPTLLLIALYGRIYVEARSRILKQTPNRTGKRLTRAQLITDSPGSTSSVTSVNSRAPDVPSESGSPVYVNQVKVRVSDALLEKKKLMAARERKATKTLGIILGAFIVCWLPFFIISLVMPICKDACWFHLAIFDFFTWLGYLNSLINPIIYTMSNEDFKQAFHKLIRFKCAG
Description: In the following examples, the compounds binding affinity for both the 5HT1A receptor and 5HT1D receptors is reported. The compounds affinity for the 5HT1D site was determined by the binding procedure of Peroutka et al as reported in European Journal of Pharmacology, Vol. 163 at pages 133-166 (1989). The compounds affinity for the 5HT1A receptor was determined by the procedure of Gozlan et al., as reported in Nature, Volume 305, at pages 140-142 (1983). Where multiple determinations of the binding affinity have been performed, the average is given followed by the number of determinations in parentheses. Also, the PA2 value for the saphenous vein preparation as described in this application is given, followed by the intrinsic (agonist) activity in parentheses, expressed as a percentage. [drawing 10]
We have used canine saphenous vein for studying 5-HT1D receptors which is similar, although not totally identical, to human coronary 5-HT1D receptors (see Humphrey, P. P. A., Feniuk, W., Perren, M. J., Connor, H. E., Oxford, A. W., Coates, I. H. and Butina, D.: GR43175, a selective agonist for the 5-HT1 -like receptor in dog isolated saphenous vein, Br. J. Pharmacol. 94:1123-1132, 1988; Kaumann, A. J.: Human heart 5-HT receptors, Second international symposium on serotonin, from cell biology to pharmacology and therapeutics, Houston, Sep. 15-18, 1992).
Mongrel dogs weighing 12-18 kg were killed by an intravenous injection of an overdose of sodium pentobarbitol. Saphenous veins were isolated, removed, cleaned of surrounding connective tissue, and cut into helical strips in a dish containing Krebs-Henseleit solution with the following composition in mM: NaCl, 110.0; KCl, 4.8; CaCl2, 2.5; KH2 PO4, 1.2; EDTA(NaEDTA), 0.027; and was constantly bubbled with 95% O2 -5% CO2. Unless otherwise specified, the endothelium of the […] was removed by rubbing with a metal rod. The intactness or absence of functional endothelium was checked by the presence or absence of a relaxant effect of acetycholine (10^-5 M) in phenylephrine-contracted tissues (see Furchgott, R. F. and Zawadzki, J. V.: The obligatory role of endothelial cells in the relaxtion of arterial smooth muscle by acetycholine, Nature 288:373-376, 1980). Each muscle strip (3×30 mm) was set up in a tissue bath at 37° C. and loaded with 2 gram tension. Contractility of the tissues was measured isometrically with a Grass FT03 force-displacement transducer and recorded on a Strip chart recorder. The tissues were allowed to stabilize for 2 hours before the experiment was started, during which time they were washed repeatedly. Tissues were contracted with 3.162×10^-6 M phenylephrine and 40 mM KCl, which produced 60-70% of their maximum contractile responses, to condition the tissue. 5-HT dose response experiment was conducted. Test compounds were then incubated with the tissue before a second 5-HT dose response experiment was performed. Data are expressed as the pA2 value, the negative logarithm of the molar concentration of antagonist which produced a 2 fold shift in ED50 values of 5-HT dose response curves (see Van Rossum, J. M.: Cumulative dose-response curve: Technique for the making of dose-response curves in isolated organs and the evaluation of drug parameters, Arch. Int. Pharmacodyn. Ther. 143:299-330, 1963).

[1] = negative log molar concentration of antagonist producing 2 fold shift in ED50 of 5-HT dose response curves, read-out: pA2 (blocking of 5-HT1-like-mediated contraction in canine saphenous vein) (converted)
[2] = average of multiple determinations where number in parentheses is given, read-out: IC50 (5HT1A Binding Affinity)
[3] = average of multiple determinations where number in parentheses is given, read-out: IC50 (5HT1D Binding Affinity)
[4] = canine saphenous vein, printed in parentheses after pA2

IC50 (5HT1A receptor; [2]) [nM] | IC50 (5HT1D receptor; [3]) [nM] | SMILES | IC50 (5HT1D receptor) [nM] | Emax (5-HT1D receptors) [%] | Kb (5-HT1D receptors; [1]) [nM] | also measured
 |  | CNC(=O)c1cc2c(N3CCN(CCc4ccccc4)CC3)cccc2s1 [Example 10, 4-[4-(2-phenylethyl)-1-piperazinyl]-benzo[b]thiophene-2-(N-methyl)-carboxamide monohydrochloride] | 1 | 25 | 0.0251 | IC50 (5HT1A receptor): 1 nM
2.3 | 3 | CN(C)C(=O)c1cc2c(N3CCN(CCc4ccccc4)CC3)cccc2s1 [Example 11, 4-[4-(2-phenylethyl)-1-piperazinyl]-benzo[b]thiophene-2-(N,N-dimethyl)-carboxamide monohydrochloride] |  |  | 0.977 | Emax (5-HT1D receptors; [4]): 2%
85 | 220 | O=C(Nc1ccccc1)c1cc2c(N3CCN(CCc4ccccc4)CC3)cccc2s1 [Example 12, 4-[4-(2-phenylethyl)-1-piperazinyl]-benzo[b]thiophene2-(N-phenyl)-carboxamide monohydrochloride] |  |  | 18.2 | Emax (5-HT1D receptors; [4]): 0%
27 | 31 | O=C(NCc1ccccc1)c1cc2c(N3CCN(CCc4ccccc4)CC3)cccc2s1 [Example 13, 4-[4-(2-phenylethyl)-1-piperazinyl]-benzo[b]thiophene-2-(N-phenylmethyl)-carboxamide monohydrochloride] |  |  | 1.74 | Emax (5-HT1D receptors; [4]): 0%
1 | 4.5 | NC(=O)c1cc2c(N3CCN(CCCc4ccccc4)CC3)cccc2s1 [Example 17, 4-[4-(3-phenylpropyl)-1-piperazinyl]-benzo[b]thiophene-2-carboxamide monohydrochloride] |  |  | 16.6 | 
53 | 411 | CCOC(=O)c1cc2c(N3CCN(CCc4ccc(Cl)cc4)CC3)cccc2s1 [Example 18, ethyl-4-[4-[2-(4-chlorophenyl)ethyl]-1-piperazinyl]-benzo[b]thiophene-2-carboxylate monohydrochloride] |  |  | 309 | 
 |  | N#Cc1cc2c(N3CCN(CCc4ccc(Cl)cc4)CC3)cccc2s1 [Example 20, 4-[4-[2-(4-chlorophenyl)ethyl]-1-piperazinyl]-benzo[b]thiophene-2-nitrile monohydrochloride] | 31 | 34 |  | IC50 (5HT1A receptor): 13 nM; Kb (5-HT1D receptors): 42.7 nM
 |  | N#Cc1cc2c(N3CCN(CCc4ccc(F)cc4)CC3)cccc2s1 [Example 24, 4-[4-[2-(4-fluorophenyl)ethyl]-1-piperazinyl]-benzo[b]thiophene-2-nitrile monohydrochloride] | 21 | 9 |  | IC50 (5HT1A receptor): 10 nM; Kb (5-HT1D receptors): 6.76 nM
 |  | COCc1cc2c(N3CCN(CCc4ccccc4)CC3)cccc2s1 [Example 37, 4-[4-(2-phenylethyl)-1-piperazinyl]-benzo[b]thiophene-2-(O-methyl)-methanol hydrochloride] | 9 | 0 | 9.33 | IC50 (5HT1A receptor): 5 nM
2.4 | 16 | CON(C)C(=O)c1cc2c(N3CCN(CCc4ccccc4)CC3)cccc2s1 [Example 40, 4-[4-(2-phenylethyl)-1-piperazinyl]-benzo[b]thiophene-2-(N-methyl-N-methoxy)-carboxamide hydrochloride] |  |  | 3.16 | Emax (5-HT1D receptors; [4]): 3%
 |  | CC(C)(O)c1cc2c(N3CCN(CCc4ccccc4)CC3)cccc2s1 [Example 41, 2-[4-[4-(2-phenylethyl)-1-piperazinyl]benzo[b]thiophene-2-]-(2-propanol) hydrochloride hemihydrate] | 16 | 16 | 36.3 | IC50 (5HT1A receptor): 4 nM
 |  | CC(=O)c1cc2c(N3CCN(CCc4ccccc4)CC3)cccc2s1 [Example 42, 1-[4-(4-phenethyl-piperazin-1-yl)-benzo[b]thiophen-2-yl]ethanone hydrochloride] | 22 | 1 |  | Kb (5-HT1D receptors): 13.5 nM
 |  | COCc1cc2c(N3CCN(CCc4ccc(F)cc4)CC3)cccc2s1 [Example 46, 4-[4-(2-(4-fluorophenyl)-ethyl)-1-piperazinyl]benzo [b]thiophene 2-methoxymethyl hydrochloride, 0.2 hydrate] |  | 5 |  | IC50 (5HT1A receptor; read-out: IC50 (5HT1A Binding Affinity), average of multiple determinations where number in parentheses is given): 4 nM; IC50 (5HT1D receptor; read-out: IC50 (5HT1D Binding Affinity), average of multiple determinations where number in parentheses is given): 17 nM; pA2 (blocking of 5-HT1-like-mediated contraction in canine saphenous vein) (5-HT1D receptors; negative log molar concentration of antagonist producing 2 fold shift in ED50 of 5-HT dose response curves): 7.98
 |  | OCC=Cc1cc2c(N3CCN(CCc4ccccc4)CC3)cccc2s1 [Example 59, 3-[4-(4-phenethyl-piperazin-1-yl)-benzo[b]thiophen-2-yl]-prop-2-en-1-ol hydrochloride] |  | 0 |  | Kb (5-HT1D receptors): 0.55 nM

SMILES | IC50 (5HT1A receptor; [2]) [nM] | IC50 (5HT1D receptor; [3]) [nM] | IC50 (5HT1D receptor) [nM] | Emax (5-HT1D receptors) [%] | Kb (5-HT1D receptors; [1]) [nM] | also measured
CCOC(=O)c1cc2c(N3CCN(CCc4ccc(F)cc4)CC3)cccc2s1 [Example 22, ethyl-4-[4-[2-(4-fluorophenyl)ethyl]-1-piperazinyl]-benzo[b]thiophene-2-carboxylate monohydrochloride] | 7.4 | 120 |  | 0 | 29.5 | 
CCCN1CCN(c2cccc3sc(C(=O)OCC)cc23)CC1 [Example 34, Ethyl 4-[(4-propyl)-1-piperazinyl]benzo[b]thiophene-2-carboxylate hydrochloride] | 104 | 416 |  | 12 | 166 | 
O=C(c1cc2c(N3CCN(CCc4ccccc4)CC3)cccc2s1)N1CCCCC1 [Example 56, [4-(4-phenethyl-piperazin-1-yl)-benzo[b]thiophen-2-yl]-piperidin-1-yl methanone hydrochloride] |  | 135 |  | 2 | 112 | 
O=C(c1cc2c(N3CCN(CCc4ccccc4)CC3)cccc2s1)N1CCCC1 [Example 57, [4-(4-phenethyl-piperazin-1-yl)-benzo[b]thiophen-2-yl]-pyrrolidin-1-yl methanone hydrochloride] |  | 25 |  | 0 | 4.27 | 
